Measurements taken from the kinase profiling compilation of Christmann-Franck et al. (2016).

What was measured:
Assay in all cases: radiometric filter-binding kinase assay, Kinase HotSpot
Settings in all cases: compound 0.5 µM; ATP 10 µM
[1] = target: ABL1 (human) (UniProt P00519)
[2] = target: ABL2 (human) (UniProt P42684)
[3] = target: BRAF (human) (UniProt P15056)
[4] = target: CAMK2D (human) (UniProt Q13557)
[5] = target: CDK4 CCND1 (human) (UniProt P24385+P11802)
[6] = target: CHEK1 (human) (UniProt O14757)
[7] = target: CLK4 (human) (UniProt Q9HAZ1)
[8] = target: CSNK1A1 (human) (UniProt P48729)
[9] = target: CSNK1G3 (human) (UniProt Q9Y6M4)
[10] = target: CSNK2A2 (human) (UniProt P19784)
[11] = target: DYRK1B (human) (UniProt Q9Y463)
[12] = target: DYRK4 (human) (UniProt Q9NR20)
[13] = target: EPHB1 (human) (UniProt P54762)
[14] = target: IKBKB (human) (UniProt O14920)
[15] = target: IRAK1 (human) (UniProt P51617)
[16] = target: JAK1 JH1 catalytic (human) (UniProt P23458)
[17] = target: JAK2 JH1 JH2 (human) (UniProt O60674)
[18] = target: MAP3K11 (human) (UniProt Q16584)
[19] = target: MAPK10 (human) (UniProt P53779)
[20] = target: MAPK11 (human) (UniProt Q15759)
[21] = target: MAPK3 (human) (UniProt P27361)
[22] = target: MAPK8 (human) (UniProt P45983)
[23] = target: MAPKAPK5 (human) (UniProt Q8IW41)
[24] = target: MARK4 (human) (UniProt Q96L34)
[25] = target: NUAK1 (human) (UniProt O60285)
[26] = target: PAK4 (human) (UniProt O96013)
[27] = target: PAK7 (human) (UniProt Q9P286)
[28] = target: PIM3 (human) (UniProt Q86V86)
[29] = target: PRKCB2 (human) (UniProt P05771)
[30] = target: PRKCD (human) (UniProt Q05655)
[31] = target: PRKCH (human) (UniProt P24723)
[32] = target: PRKD2 (human) (UniProt Q9BZL6)
[33] = target: ROCK1 (human) (UniProt Q13464)
[34] = target: ROCK2 (human) (UniProt O75116)
[35] = target: ROS1 (human) (UniProt P08922)
[36] = target: SIK2 (human) (UniProt Q9H0K1)
[37] = target: STK17A (human) (UniProt Q9UEE5)
[38] = target: STK39 (human) (UniProt Q9UEW8)
[39] = target: TBK1 (human) (UniProt Q9UHD2)
[40] = target: TSSK2 (human) (UniProt Q96PF2)

MAPK11 (human), sequence (Q15759 whole entry, looked up): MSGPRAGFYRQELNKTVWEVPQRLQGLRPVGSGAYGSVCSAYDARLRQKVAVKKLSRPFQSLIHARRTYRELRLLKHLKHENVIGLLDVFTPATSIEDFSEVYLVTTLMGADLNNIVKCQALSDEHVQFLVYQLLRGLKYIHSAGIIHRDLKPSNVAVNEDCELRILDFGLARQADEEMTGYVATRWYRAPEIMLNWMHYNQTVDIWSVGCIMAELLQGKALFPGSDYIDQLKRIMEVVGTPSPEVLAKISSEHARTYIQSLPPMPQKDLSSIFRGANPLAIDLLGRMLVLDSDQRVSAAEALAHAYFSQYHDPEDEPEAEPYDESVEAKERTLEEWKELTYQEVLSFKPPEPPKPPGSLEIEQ
DYRK4 (human), sequence (Q9NR20 whole entry, looked up): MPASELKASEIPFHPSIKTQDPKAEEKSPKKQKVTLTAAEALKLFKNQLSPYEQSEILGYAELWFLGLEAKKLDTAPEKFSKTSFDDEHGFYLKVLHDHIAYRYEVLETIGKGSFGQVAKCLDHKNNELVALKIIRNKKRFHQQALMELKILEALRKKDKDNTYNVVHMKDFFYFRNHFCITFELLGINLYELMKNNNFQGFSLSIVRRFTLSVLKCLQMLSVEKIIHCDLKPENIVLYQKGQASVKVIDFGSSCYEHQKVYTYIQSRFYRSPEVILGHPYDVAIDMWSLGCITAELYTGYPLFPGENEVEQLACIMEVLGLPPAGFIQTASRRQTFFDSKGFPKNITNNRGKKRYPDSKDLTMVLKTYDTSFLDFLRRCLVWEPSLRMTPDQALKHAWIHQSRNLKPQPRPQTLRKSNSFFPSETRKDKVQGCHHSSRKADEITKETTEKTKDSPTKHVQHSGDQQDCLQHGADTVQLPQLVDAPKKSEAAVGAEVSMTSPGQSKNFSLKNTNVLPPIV
SIK2 (human), sequence (Q9H0K1 whole entry, looked up): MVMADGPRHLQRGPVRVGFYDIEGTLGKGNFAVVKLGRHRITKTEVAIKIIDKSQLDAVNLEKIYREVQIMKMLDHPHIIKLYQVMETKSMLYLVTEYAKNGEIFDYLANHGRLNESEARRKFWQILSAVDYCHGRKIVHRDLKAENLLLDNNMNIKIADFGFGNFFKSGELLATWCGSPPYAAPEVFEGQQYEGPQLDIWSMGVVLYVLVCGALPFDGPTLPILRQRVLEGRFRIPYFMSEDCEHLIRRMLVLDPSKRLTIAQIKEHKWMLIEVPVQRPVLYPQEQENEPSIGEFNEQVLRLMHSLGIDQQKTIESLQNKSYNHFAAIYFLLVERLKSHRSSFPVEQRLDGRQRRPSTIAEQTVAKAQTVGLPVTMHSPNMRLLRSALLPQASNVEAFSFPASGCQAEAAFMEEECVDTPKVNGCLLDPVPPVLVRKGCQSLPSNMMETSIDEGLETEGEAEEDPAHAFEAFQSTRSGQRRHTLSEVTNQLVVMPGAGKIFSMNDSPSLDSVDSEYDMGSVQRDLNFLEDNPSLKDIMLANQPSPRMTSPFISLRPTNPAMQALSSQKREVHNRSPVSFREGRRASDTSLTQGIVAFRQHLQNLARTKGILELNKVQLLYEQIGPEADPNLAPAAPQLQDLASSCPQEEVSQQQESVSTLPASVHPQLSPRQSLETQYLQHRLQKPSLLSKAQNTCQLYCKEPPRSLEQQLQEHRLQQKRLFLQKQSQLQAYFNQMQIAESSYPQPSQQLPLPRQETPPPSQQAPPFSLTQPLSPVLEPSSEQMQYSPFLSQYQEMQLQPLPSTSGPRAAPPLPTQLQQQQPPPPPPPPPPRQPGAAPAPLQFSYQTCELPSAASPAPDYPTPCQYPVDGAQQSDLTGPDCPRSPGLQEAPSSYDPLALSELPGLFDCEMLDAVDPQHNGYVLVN
PRKCD (human), sequence (Q05655 whole entry, looked up): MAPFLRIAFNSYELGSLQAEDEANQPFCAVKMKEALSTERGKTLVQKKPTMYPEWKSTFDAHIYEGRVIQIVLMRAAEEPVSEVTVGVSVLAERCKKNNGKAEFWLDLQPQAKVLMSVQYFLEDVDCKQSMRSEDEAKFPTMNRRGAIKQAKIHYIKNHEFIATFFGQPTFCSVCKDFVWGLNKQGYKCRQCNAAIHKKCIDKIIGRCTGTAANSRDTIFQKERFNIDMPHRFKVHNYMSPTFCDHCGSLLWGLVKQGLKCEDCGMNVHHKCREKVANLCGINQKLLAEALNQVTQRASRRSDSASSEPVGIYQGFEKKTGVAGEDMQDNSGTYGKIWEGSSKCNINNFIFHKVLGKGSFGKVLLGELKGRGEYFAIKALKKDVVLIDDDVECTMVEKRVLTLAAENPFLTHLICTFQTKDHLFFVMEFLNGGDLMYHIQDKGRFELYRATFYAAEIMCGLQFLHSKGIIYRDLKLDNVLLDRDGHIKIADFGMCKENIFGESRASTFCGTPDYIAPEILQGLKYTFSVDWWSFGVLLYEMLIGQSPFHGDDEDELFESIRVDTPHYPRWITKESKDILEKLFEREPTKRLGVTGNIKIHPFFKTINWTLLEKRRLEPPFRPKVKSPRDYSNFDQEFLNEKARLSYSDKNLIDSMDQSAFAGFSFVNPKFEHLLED
STK17A (human), sequence (Q9UEE5 whole entry, looked up): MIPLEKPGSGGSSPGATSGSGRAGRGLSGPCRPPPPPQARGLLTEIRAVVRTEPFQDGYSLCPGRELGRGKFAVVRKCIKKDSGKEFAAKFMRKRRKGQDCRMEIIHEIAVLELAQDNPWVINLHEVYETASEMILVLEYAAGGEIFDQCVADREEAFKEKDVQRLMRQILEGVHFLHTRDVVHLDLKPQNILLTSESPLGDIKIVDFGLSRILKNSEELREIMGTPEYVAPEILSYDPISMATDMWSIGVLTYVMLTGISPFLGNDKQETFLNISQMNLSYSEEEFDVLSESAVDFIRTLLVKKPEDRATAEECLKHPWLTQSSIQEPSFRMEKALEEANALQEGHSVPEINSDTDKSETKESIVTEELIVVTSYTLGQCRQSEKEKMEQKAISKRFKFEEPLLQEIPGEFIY
NUAK1 (human), sequence (O60285 whole entry, looked up): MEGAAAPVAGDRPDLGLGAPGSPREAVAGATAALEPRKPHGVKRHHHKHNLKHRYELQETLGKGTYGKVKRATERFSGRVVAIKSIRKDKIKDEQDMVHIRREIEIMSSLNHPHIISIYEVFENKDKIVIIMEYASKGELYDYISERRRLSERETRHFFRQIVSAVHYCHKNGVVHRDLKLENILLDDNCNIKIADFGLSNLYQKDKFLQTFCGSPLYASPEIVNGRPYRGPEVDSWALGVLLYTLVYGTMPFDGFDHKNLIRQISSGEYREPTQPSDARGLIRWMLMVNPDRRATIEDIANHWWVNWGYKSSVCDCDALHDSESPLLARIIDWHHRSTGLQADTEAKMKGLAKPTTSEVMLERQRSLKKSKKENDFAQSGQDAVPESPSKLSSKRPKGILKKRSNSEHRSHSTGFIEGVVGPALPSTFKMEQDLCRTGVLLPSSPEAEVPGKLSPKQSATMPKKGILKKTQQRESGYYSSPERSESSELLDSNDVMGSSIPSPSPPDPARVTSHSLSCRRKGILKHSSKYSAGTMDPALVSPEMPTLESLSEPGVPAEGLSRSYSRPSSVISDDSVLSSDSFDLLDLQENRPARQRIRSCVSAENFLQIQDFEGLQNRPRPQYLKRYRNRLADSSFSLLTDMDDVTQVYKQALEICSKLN
MARK4 (human), sequence (Q96L34 whole entry, looked up): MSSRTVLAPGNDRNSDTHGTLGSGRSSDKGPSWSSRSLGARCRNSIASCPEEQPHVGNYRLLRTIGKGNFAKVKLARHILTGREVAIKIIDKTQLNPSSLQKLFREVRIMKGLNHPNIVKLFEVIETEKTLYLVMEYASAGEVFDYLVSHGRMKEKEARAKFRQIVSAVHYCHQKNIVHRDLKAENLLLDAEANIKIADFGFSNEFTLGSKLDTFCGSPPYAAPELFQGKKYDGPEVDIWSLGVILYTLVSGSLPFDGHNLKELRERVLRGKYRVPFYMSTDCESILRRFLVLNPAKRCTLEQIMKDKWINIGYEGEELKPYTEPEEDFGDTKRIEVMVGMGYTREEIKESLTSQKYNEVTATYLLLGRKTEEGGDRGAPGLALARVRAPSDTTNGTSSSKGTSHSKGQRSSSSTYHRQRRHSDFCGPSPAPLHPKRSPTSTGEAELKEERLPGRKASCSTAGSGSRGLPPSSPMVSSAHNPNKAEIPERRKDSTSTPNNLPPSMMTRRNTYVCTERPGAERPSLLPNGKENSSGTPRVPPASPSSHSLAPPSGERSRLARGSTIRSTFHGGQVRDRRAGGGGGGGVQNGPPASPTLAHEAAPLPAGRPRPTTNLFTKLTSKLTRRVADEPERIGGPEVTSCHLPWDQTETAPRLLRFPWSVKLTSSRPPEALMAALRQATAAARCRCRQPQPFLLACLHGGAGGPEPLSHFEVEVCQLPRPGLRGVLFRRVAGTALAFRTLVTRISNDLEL
CSNK1A1 (human), sequence (P48729 whole entry, looked up): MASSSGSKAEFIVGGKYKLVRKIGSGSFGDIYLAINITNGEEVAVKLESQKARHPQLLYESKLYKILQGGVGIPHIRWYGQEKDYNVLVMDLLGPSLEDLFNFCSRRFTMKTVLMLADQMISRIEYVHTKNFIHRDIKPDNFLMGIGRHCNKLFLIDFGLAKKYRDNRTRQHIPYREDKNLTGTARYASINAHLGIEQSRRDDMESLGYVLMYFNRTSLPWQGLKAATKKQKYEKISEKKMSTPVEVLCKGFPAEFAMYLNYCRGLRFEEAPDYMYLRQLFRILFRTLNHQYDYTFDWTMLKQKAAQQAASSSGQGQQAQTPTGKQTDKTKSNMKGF

For `CC#CC(=O)Nc1cc2c(Nc3ccc(F)c(Cl)c3)ncnc2cn1`, the residual activity [1] was 97.8%, the residual activity [2] was 89.4% and the residual activity [3] was 82.1%. The residual activity [4] was 100%, the residual activity [5] was 98.6% and the residual activity [6] was 106%. The residual activity [7] was 90.4%, the residual activity [8] was 107% and the residual activity [9] was 111%. For the same molecule, the residual activity [10] was 96.5%, the residual activity [11] was 103% and the residual activity [12] was 98%. For the same molecule, the residual activity [13] was 92%, the residual activity [14] was 102% and the residual activity [15] was 104%. The residual activity [16] was 104%, the residual activity [17] was 97.4% and the residual activity [18] was 99.3%. For the same molecule, the residual activity [19] was 85.4%, the residual activity [20] was 96.2% and the residual activity [21] was 100%. The residual activity [22] was 98.9%, the residual activity [23] was 96.3% and the residual activity [24] was 101%. The residual activity [25] was 98.1%, the residual activity [26] was 107% and the residual activity [27] was 102%. For the same molecule, the residual activity [28] was 89.1%, the residual activity [29] was 99.5% and the residual activity [30] was 99.8%. For the same molecule, the residual activity [31] was 90.4%, the residual activity [32] was 97.6% and the residual activity [33] was 96.2%. The residual activity [34] was 98.7%, the residual activity [35] was 91.3% and the residual activity [36] was 81.3%. For the same molecule, the residual activity [37] was 92.9%, the residual activity [38] was 91.3% and the residual activity [39] was 105%. The residual activity [40] was 100%.

With `COc1cc2ncnc(Nc3cccc(Cl)c3)c2cc1OC` the residual activity [1] was 61.8%, the residual activity [2] was 52.6% and the residual activity [3] was 96%. It also gave a residual activity [4] of 96.1%, a residual activity [5] of 103% and a residual activity [6] of 93.7%. For the same molecule, the residual activity [7] was 98.2%, the residual activity [8] was 92.5% and the residual activity [9] was 92.4%. For the same molecule, the residual activity [10] was 92.3%, the residual activity [11] was 104% and the residual activity [12] was 91.7%. It also gave a residual activity [13] of 82.8%, a residual activity [14] of 102% and a residual activity [15] of 86.6%. For the same molecule, the residual activity [16] was 90.4%, the residual activity [17] was 97.4% and the residual activity [18] was 84.1%. The residual activity [19] was 89%, the residual activity [20] was 97.5% and the residual activity [21] was 96.4%. The residual activity [22] was 93.8%, the residual activity [23] was 89.5% and the residual activity [24] was 98.5%. The residual activity [25] was 75.8%, the residual activity [26] was 76.5% and the residual activity [27] was 83%. The residual activity [28] was 99.4%, the residual activity [29] was 95.5% and the residual activity [30] was 86.4%. The residual activity [31] was 104%, the residual activity [32] was 92.3% and the residual activity [33] was 95.9%. The residual activity [34] was 92.6%, the residual activity [35] was 91.2% and the residual activity [36] was 98.7%. It also gave a residual activity [37] of 95.4%, a residual activity [38] of 97% and a residual activity [39] of 78%. The residual activity [40] was 94.8%.
